These results are taken from patent publication US8575091B1, “Amylin analogues and pharmaceutical compositions thereof” (Novo Nordisk A/S, priority 2012, dated 2013).

The structures appear in SMILES notation. pEC50, pIC50: −log10 of the molar value. Read-outs that look alike come from different tables or passages of the source. Numbered stars: 1 amine (or outer) side, 2 acyl side, 3 side chain; on linkers, the order of the positions; unused ones are H or OH. Bridge positions count the residues as written; N and C are the ends. Side chains are listed from the residue outwards. Peptide text beside a SMILES is read from it. * marks the point of attachment. C20 diacid = O=C(O)CCCCCCCCCCCCCCCCCCC(=O)*; γGlu = O=C(O)[C@H](CCC(=O)[*:2])N[*:1]; AEEA = NCCOCCOCC(=O)O

For orientation: pIC50 means the IC50 on a negative log10 scale, so that one unit is a factor of ten. As a reminder, the pEC50 is −log10 of the EC50, conventionally taken in molar units.

In assay [1] the target is T1, human calcitonin receptor (Homo sapiens, UniProt P30988).
T1 construct: expressed in transfected cells
T1 sequence (P30988 25-474): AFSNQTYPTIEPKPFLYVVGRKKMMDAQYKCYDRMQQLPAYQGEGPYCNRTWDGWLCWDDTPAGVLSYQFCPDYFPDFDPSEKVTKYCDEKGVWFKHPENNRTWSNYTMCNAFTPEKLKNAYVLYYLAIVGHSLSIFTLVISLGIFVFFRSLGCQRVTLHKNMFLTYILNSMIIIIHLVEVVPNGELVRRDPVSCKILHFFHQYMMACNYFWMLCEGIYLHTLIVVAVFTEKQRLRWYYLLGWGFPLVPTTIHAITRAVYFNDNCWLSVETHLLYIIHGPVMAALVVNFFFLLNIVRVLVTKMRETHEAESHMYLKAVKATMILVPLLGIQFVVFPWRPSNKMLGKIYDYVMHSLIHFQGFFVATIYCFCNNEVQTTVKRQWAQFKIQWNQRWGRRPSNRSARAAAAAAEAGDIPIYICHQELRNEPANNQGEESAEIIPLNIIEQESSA
Put plainly: Assay (VII) binding to the human calcitonin receptor (SPA, 125I-Calcitonin).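 Also: cell membranes coupled to SPA beads, competitive displacement read by scintillation counting, IC50 derived from a one-site competition fit as a measure of receptor affinity.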 As to conditions: read-out: hCTR bind IC50.

Assay [2] concerns the target T1, human calcitonin receptor. Nature of the assay: Assay (II)a functional assay, human calcitonin receptor (CRE luciferase, BHK cells).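 Also: luminescence from a CRE-driven luciferase reporter, read by single photon counting after cells were exposed to test samples for 3 h at 37 °C under 5% CO2.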 In kind it is cell-based. As to conditions: read-out: hCTR funct. EC50.
Assay [3] addresses T2, human amylin receptor (amylin 3(a) receptor: human calcitonin receptor + RAMP-3) (Homo sapiens, UniProt O60896+P30988).
T2 construct: expressed in transfected cells
T2 sequence (P30988 25-474): T1 sequence (P30988 25-474)
T2 sequence (O60896 24-148 partner): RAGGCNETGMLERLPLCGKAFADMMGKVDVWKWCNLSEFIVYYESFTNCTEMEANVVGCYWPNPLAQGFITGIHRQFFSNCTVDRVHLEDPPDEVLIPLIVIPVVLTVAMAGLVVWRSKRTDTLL
Nature of the assay: Assay (II)a functional assay, human amylin receptor (CRE luciferase, BHK cells). In kind it is cell-based. To be noted: for pEC50: read-out: hAmylin-R funct. EC50.

Assay [4] deals with T3, human amylin receptor (Homo sapiens, UniProt O60896+P30988).
T3 construct: expressed in transfected cells
T3 sequence (P30988 25-474): T1 sequence (P30988 25-474)
T3 sequence (O60896 24-148 partner): T2 sequence (O60896 24-148 partner)
Nature of the assay: Assay (V) binding to the human amylin receptor (SPA, 125I-rat amylin). As to conditions: for pIC50: human amylin receptor membranes, SPA, read-out: hAmylin-R bind IC50. The essentials:
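SPA competition binding on membranes from Amylin 3(a)/CRE-luc cells, 35 ng/μL membranes with 0.05 mg/well beads. Buffer 50 mM Hepes pH 7.4, 1 mM CaCl2, 5 mM MgCl2, 0.1% OA, 0.02% Tween20. IC50 from one-site competition fit as affinity measure.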

[5] abbreviates: functional assay, human amylin receptor.
[6] abbreviates: Table 6, human functional selectivity (hCTR EC50 / hAmylin-R EC50).
Where [7] appears, read: Table 6a, human functional selectivity (hCTR EC50 / hAmylin-R EC50), at least 5.
Setting [8] is: Table 6j, hCTR funct. EC50 / hAmylin-R funct. EC50.
Setting [9] is: Table 6k, hCTR funct. EC50 / hAmylin-R funct. EC50.

Consider `CC[C@H](C)[C@H](NC(=O)[C@H](C)NC(=O)CNC(=O)[C@H](Cc1ccccc1)NC(=O)[C@H](CC(N)=O)NC(=O)[C@@H]1CCCN1C(=O)[C@H](CO)NC(=O)[C@H](CO)NC(=O)[C@H](Cc1c[nH]cn1)NC(=O)[C@H](CCCNC(=N)N)NC(=O)[C@H](CC(C)C)NC(=O)[C@H](Cc1ccccc1)NC(=O)[C@H](CC(N)=O)NC(=O)[C@H](C)NC(=O)[C@H](CC(C)C)NC(=O)[C@H](CCCNC(=N)N)NC(=O)[C@H](CCC(N)=O)NC(=O)[C@@H](NC(=O)[C@H](C)NC(=O)[C@@H]1CSSC[C@H](NC(=O)[C@H](CCCNC(=N)N)NC(=O)CNC(=O)CC[C@H](NC(=O)CCCCCCCCCCCCCCCCCCC(=O)O)C(=O)O)C(=O)N[C@@H](CC(N)=O)C(=O)N[C@@H]([C@@H](C)O)C(=O)N[C@@H](C)C(=O)N[C@@H]([C@@H](C)O)C(=O)N1)[C@@H](C)O)C(=O)N1CCC[C@H]1C(=O)N[C@@H](CO)C(=O)N[C@@H](CO)C(=O)N[C@H](C(=O)N[C@@H](CC(N)=O)C(=O)N[C@H](C(=O)NCC(=O)N[C@@H](CO)C(=O)N[C@@H](CC(N)=O)C(=O)N[C@H](C(=O)N[C@@H](Cc1ccc(O)cc1)C(N)=O)[C@@H](C)O)C(C)C)[C@@H](C)O` [Example 46] ({C20 diacid-γGlu}-GRCNTATCATQRLANFLRHSSPNFGAIPSSTNVGSNTY-NH2; disulfide 3-8), for which the results for the pIC50 in assay [1] and in assay [4] were 8.02 and 9.71, respectively. Besides, the pEC50 in assay [2] is 9.05; in assay [3] (setting [5]), 10.06.

For `CC[C@H](C)[C@H](NC(=O)[C@H](C)NC(=O)CNC(=O)[C@H](Cc1ccccc1)NC(=O)[C@H](CC(N)=O)NC(=O)[C@@H]1CCCN1C(=O)[C@H](CO)NC(=O)[C@H](CO)NC(=O)[C@H](Cc1c[nH]cn1)NC(=O)[C@H](CCCNC(=N)N)NC(=O)[C@H](CC(C)C)NC(=O)[C@H](Cc1ccccc1)NC(=O)[C@H](Cc1c[nH]cn1)NC(=O)[C@H](C)NC(=O)[C@H](CC(C)C)NC(=O)[C@H](CCCNC(=N)N)NC(=O)[C@H](CCC(N)=O)NC(=O)[C@@H](NC(=O)[C@H](C)NC(=O)[C@@H]1CSSC[C@H](NC(=O)[C@@H](N)CCCCNC(=O)COCCOCCNC(=O)CC[C@H](NC(=O)CCCCCCCCCCCCCCCCCCC(=O)O)C(=O)O)C(=O)N[C@@H](CC(N)=O)C(=O)N[C@@H]([C@@H](C)O)C(=O)N[C@@H](C)C(=O)N[C@@H]([C@@H](C)O)C(=O)N1)[C@@H](C)O)C(=O)N1CCC[C@H]1C(=O)N[C@@H](CO)C(=O)N[C@@H](CO)C(=O)N[C@H](C(=O)N[C@@H](CC(N)=O)C(=O)N[C@H](C(=O)NCC(=O)N1CCC[C@H]1C(=O)N[C@@H](CC(N)=O)C(=O)N[C@H](C(=O)N[C@@H](Cc1ccc(O)cc1)C(N)=O)[C@@H](C)O)C(C)C)[C@@H](C)O` [Example 68] (H-K([AEEA-γGlu-C20 diacid])CNTATCATQRLAHFLRHSSPNFGAIPSSTNVGPNTY-NH2; disulfide 2-7), the values for the pIC50 in assay [1] and in assay [4] were 8.25 and 10.06, respectively. The pEC50 in assay [2] is 9.03; in assay [3] (setting [5]) it was 10.27.

In the case of `CC[C@H](C)[C@H](NC(=O)[C@H](C)NC(=O)CNC(=O)[C@H](Cc1ccccc1)NC(=O)[C@H](CC(N)=O)NC(=O)[C@@H]1CCCN1C(=O)[C@H](CO)NC(=O)[C@H](CO)NC(=O)[C@H](Cc1c[nH]cn1)NC(=O)[C@H](CCCNC(=N)N)NC(=O)[C@H](CC(C)C)NC(=O)[C@H](Cc1ccccc1)NC(=O)[C@H](CCC(=O)O)NC(=O)[C@H](C)NC(=O)[C@H](CC(C)C)NC(=O)[C@H](CCCNC(=N)N)NC(=O)[C@H](CCC(N)=O)NC(=O)[C@@H](NC(=O)[C@H](C)NC(=O)[C@@H]1CSSC[C@H](NC(=O)[C@H](CCCCN)NC(=O)CC[C@H](NC(=O)CCCCCCCCCCCCCCCCCCC(=O)O)C(=O)O)C(=O)N[C@@H](CC(N)=O)C(=O)N[C@@H]([C@@H](C)O)C(=O)N[C@@H](C)C(=O)N[C@@H]([C@@H](C)O)C(=O)N1)[C@@H](C)O)C(=O)N1CCC[C@H]1C(=O)N[C@@H](CO)C(=O)N[C@@H](CO)C(=O)N[C@H](C(=O)N[C@@H](CC(N)=O)C(=O)N[C@H](C(=O)NCC(=O)N[C@@H](CO)C(=O)N[C@@H](CCCNC(=N)N)C(=O)N[C@H](C(=O)N[C@@H](Cc1ccc(O)cc1)C(N)=O)[C@@H](C)O)C(C)C)[C@@H](C)O` [Example 16] ({C20 diacid-γGlu}-KCNTATCATQRLAEFLRHSSPNFGAIPSSTNVGSRTY-NH2; disulfide 2-7), the pIC50 in assay [1] is 7.77; in assay [4], 9.05. Moreover, the pEC50 in assay [2] was 8.65; in assay [3] (Table 6i, human amylin receptor functional), 9.44. The “Ratio hCT/hAmylin funct.” value in assay [3] (setting [6]) was 6.1; in assay [3] (setting [7]) it was 6.1; in assay [3] (Table 6i, hCTR funct. EC50 / hAmylin-R funct. EC50) it was 6.1; in assay [3] (setting [8]), 6.1; in assay [3] (setting [9]), 6.1.

Consider `CC[C@H](C)[C@H](NC(=O)[C@H](C)NC(=O)CNC(=O)[C@H](Cc1ccccc1)NC(=O)[C@H](CC(N)=O)NC(=O)[C@@H]1CCCN1C(=O)[C@H](CO)NC(=O)[C@H](CO)NC(=O)[C@H](Cc1c[nH]cn1)NC(=O)[C@H](CCCNC(=N)N)NC(=O)[C@H](CC(C)C)NC(=O)[C@H](Cc1ccccc1)NC(=O)[C@H](CC(N)=O)NC(=O)[C@H](C)NC(=O)[C@H](CC(C)C)NC(=O)[C@H](CCCNC(=N)N)NC(=O)[C@H](CCC(N)=O)NC(=O)[C@@H](NC(=O)[C@H](C)NC(=O)[C@@H]1CSSC[C@H](NC(=O)[C@@H](N)CCCCNC(=O)COCCOCCNC(=O)COCCOCCNC(=O)CC[C@H](NC(=O)CCCCCCCCCCCCCCCCCCC(=O)O)C(=O)O)C(=O)N[C@@H](CC(N)=O)C(=O)N[C@@H]([C@@H](C)O)C(=O)N[C@@H](C)C(=O)N[C@@H]([C@@H](C)O)C(=O)N1)[C@@H](C)O)C(=O)N1CCC[C@H]1C(=O)N[C@@H](CO)C(=O)N[C@@H](CO)C(=O)N[C@H](C(=O)N[C@@H](CC(N)=O)C(=O)N[C@H](C(=O)NCC(=O)N1CCC[C@H]1C(=O)N[C@@H](CC(N)=O)C(=O)N[C@H](C(=O)N[C@@H](Cc1ccc(O)cc1)C(N)=O)[C@@H](C)O)C(C)C)[C@@H](C)O` [Example 98], for which the results for the pIC50 in assay [1] and in assay [4] were 8.17 and 10.04, respectively. Besides, the pEC50 in assay [2] was 8.79; in assay [3] (setting [5]), 10.08.

As to `CC[C@H](C)[C@H](NC(=O)[C@H](C)NC(=O)CNC(=O)[C@H](Cc1ccccc1)NC(=O)[C@H](CC(N)=O)NC(=O)[C@@H]1CCCN1C(=O)[C@H](CO)NC(=O)[C@H](CO)NC(=O)[C@H](Cc1c[nH]cn1)NC(=O)[C@H](CCCNC(=N)N)NC(=O)[C@H](CC(C)C)NC(=O)[C@H](Cc1ccccc1)NC(=O)[C@H](CC(N)=O)NC(=O)[C@H](C)NC(=O)[C@H](CC(C)C)NC(=O)[C@H](CCCNC(=N)N)NC(=O)[C@H](CCC(N)=O)NC(=O)[C@@H](NC(=O)[C@H](C)NC(=O)[C@@H]1CSSC[C@H](NC(=O)[C@H](CCCCN)NC(=O)CC[C@H](NC(=O)CCCCCCCCCCCCCCCCCCC(=O)O)C(=O)O)C(=O)N[C@@H](CC(N)=O)C(=O)N[C@@H]([C@@H](C)O)C(=O)N[C@@H](C)C(=O)N[C@@H]([C@@H](C)O)C(=O)N1)[C@@H](C)O)C(=O)N1CCC[C@H]1C(=O)N[C@@H](CO)C(=O)N[C@@H](CO)C(=O)N[C@H](C(=O)N[C@@H](CC(N)=O)C(=O)N[C@H](C(=O)NCC(=O)N[C@@H](CO)C(=O)N[C@@H](CCC(=O)O)C(=O)N[C@H](C(=O)N[C@@H](Cc1ccc(O)cc1)C(N)=O)[C@@H](C)O)C(C)C)[C@@H](C)O` [Example 23], the pIC50 was 7.66 in assay [1] and 9.06 in assay [4]. For the same compound, the pEC50 in assay [2] is 8.52; in assay [3] (setting [5]), 9.47. In addition, the “Ratio hCT/hAmylin funct.” value in assay [3] (setting [6]), in assay [3] (setting [7]), in assay [3] (setting [8]) and in assay [3] (setting [9]) was 8.9 each time. Besides, the “Ratio hCT/hAmylin binding” value is 25.0 in assay [4] (Table 7b, human calcitonin receptor binding IC50 divided by human amylin receptor binding IC50); 25.0 in assay [4] (Table 7c, human calcitonin receptor binding IC50 divided by human amylin receptor binding IC50); 25.0 in assay [4] (human binding ratio, included for comparison).
